Reference: US20060040992A1, “Antiinflammatory 3-arylthio-3-thiazolyl-alkylamines” (AstraZeneca AB, priority 2002, published 2006)

Molecular target: T1, nitric oxide synthase (Mus musculus, UniProt P29477)
T1 construct: The reaction is started by adding 50 μl of cell lysate (prepared as above); endogenous in cells; host or cells: J774A-1 murine macrophage cell line, induced with LPS and IFN-gamma; crude cell lysate
Experiment: Screen 1: nitric oxide synthase inhibition, 3H-L-arginine to 3H-L-citrulline conversion, lysate of induced J774A-1 cells
Assay type: biochemical
Conditions: enzyme from IFNg/LPS-induced murine macrophage J774A-1 cell lysate; 1 hour at room temperature; read-out: IC50 (concentration of drug substance which gives 50% enzyme inhibition in the assay)
Experimental: The activity of compounds of formula (I), or a pharmaceutically acceptable salt thereof, may be screened for nitric oxide synthase inhibiting activity by a procedure based on that of Förstermann et al., Eur. J. Pharm., 1992, 225, 161-165. Nitric oxide synthase converts ^3H-L-arginine into ^3H-L-citrulline which can be separated by cation exchange chromatography and quantified by liquid scintillation counting.
Enzyme is prepared, after induction, from the cultured murine macrophage cell line J774A-1 (obtained from the laboratories of the Imperial Cancer Research Fund). J774A-1 cells are cultured in Dulbeccos Modified Eagles Medium (DMM) supplemented with 10% foetal bovine serum, 4 mM L-glutamine and antibiotics (100 units/ml penicillin G, […] & […] amphotericin B). Cells are routinely grown in […] flasks is containing 35 ml medium kept at 37° C. and in a humidified atmosphere containing 5% CO2. […]
Labelled L-citrulline is separated from labelled L-arginine using Dowex AG-50W. […] After allowing the samples to dry the L-citruulline is quantified by scintillation counting.
In a typical experiment basal activity is 300 dpm per 75 μl sample which is increased to 1900 dpm in the reagent controls. […] Compounds are tested at a range of concentrations and from the inhibitions obtained IC50 values are calculated. […]

For `N=C(N)NN` [arninoguanidine], which IC50 is on record?
Its IC50 is 10 µM.
